Assay in all cases: NCI anticancer screen, dose series, 48 h
For experiment [1], the system named is HT29 colon.
The test system of experiment [2] is 786-0 renal.
The subject of experiment [3] is OVCAR-4 ovarian.
Experiment [4] relates to SK-MEL-2 melanoma.
Experiment [5] relates to DU-145 prostate.
Experiment [6] has as its system OVCAR-5 ovarian.
The test system of experiment [7] is RXF 393 renal.

SMILES strings stand for the structures.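 Grown in 96-well plates, cells were treated for 48 hours with each compound at five concentrations. Insufficient inhibition: endpoint recorded as highest concentration tested. GI50 = concentration required for 50% inhibition of growth. Definition used: TGI = concentration required for complete inhibition of growth.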 Some results are limits rather than exact numbers.

Data on eleven molecules can be found in PubChem BioAssay (NCI).

With `CC1(C)N=C(N)N=C(N)N1c1ccc(OCc2ccc(S(=O)(=O)F)c(Cl)c2)c(Cl)c1`, the GI50 in experiment [1] was 0.845 µM; in experiment [2], 0.814 µM; in experiment [3], 17.5 µM; in experiment [4], over 100 µM; in experiment [5], 4 µM; in experiment [6] it was over 100 µM. The GI50 in experiment [7] was 18.7 µM. Also, the TGI in experiment [1], in experiment [2], in experiment [3], in experiment [4], in experiment [5] and in experiment [6] was over 100 µM in each case. Further, the TGI in experiment [7] is over 100 µM.

As to `COc1cc2c(c(OC)c1OC)-c1c(cc3c(c1OC)OCO3)C1OC2C(C)C1C` (configuration not stated) (tested in a mixture with another compound), the TGI in experiment [1], in experiment [2], in experiment [3], in experiment [4], in experiment [5] and in experiment [6] was over 100 µM in each case. The TGI in experiment [7] was over 100 µM.

Regarding `Cc1ccc(NC(=O)c2sc3nc(C)c(C(O)c4ccccc4)cc3c2N)cc1` (configuration not stated), the GI50 in experiment [1] is 0.358 µM; in experiment [2], 1.02 µM; in experiment [3] it was 1.55 µM; in experiment [4], 1.32 µM; in experiment [5] it was 0.391 µM; in experiment [6], 0.698 µM. The GI50 in experiment [7] was 0.333 µM. The TGI was found to be 14.8 µM in experiment [1]; 18.8 µM in experiment [2]; 47 µM in experiment [3]; 67.3 µM in experiment [4]; 16.8 µM in experiment [5]; 24.1 µM in experiment [6]. In addition, in experiment [7], the TGI turned out to be 3.29 µM.

With `CCCCCN(CCCCC)CC(O)c1ccc(Cl)c2ccccc12` (configuration not stated), the GI50 in experiment [1] is 2.24 µM; in experiment [2], 11.7 µM; in experiment [3] it was 12.2 µM; in experiment [4] it was 17.4 µM; in experiment [5], 12.1 µM; in experiment [6] it was 9.41 µM. For the same molecule, the GI50 in experiment [7] is 2.13 µM. Moreover, the TGI in experiment [1] was 20.6 µM; in experiment [2], 24.8 µM; in experiment [3], 72.5 µM; in experiment [4], 38.2 µM; in experiment [5], 30.6 µM; in experiment [6] it was 22 µM. For the same molecule, in experiment [7], the TGI came out at 8 µM.

For the molecule `Fc1ccc(-c2nn3ncccc3c2-c2ccnc(Nc3ccc4c(c3)OCCO4)n2)cc1`, the GI50 in experiment [1] is 0.933 µM; in experiment [2], 2.29 µM; in experiment [3], 6.89 µM; in experiment [4], 4.45 µM; in experiment [5], 6.26 µM; in experiment [6] it was 14 µM. Besides, the GI50 in experiment [7] is 1.07 µM. The TGI in experiment [1] is over 13.6 µM; in experiment [2] it was over 25 µM; in experiment [3], over 25 µM; in experiment [4], 9.71 µM; in experiment [5] it was over 25 µM; in experiment [6], over 25 µM. For the same molecule, in experiment [7], the TGI amounted to 7.22 µM.

`O=C(/C=C\n1cnc(-c2cc(C(F)(F)F)cc(C(F)(F)F)c2)n1)NNc1cnccn1`: the GI50 in experiment [1] is 0.131 µM; in experiment [2], 0.0781 µM; in experiment [3], 0.0364 µM; in experiment [4], 0.0729 µM; in experiment [5], 0.271 µM; in experiment [6] it was 0.189 µM. Moreover, the GI50 in experiment [7] was 0.028 µM. Further, the TGI in experiment [1] was 22.4 µM; in experiment [2], 13.9 µM; in experiment [3] it was 14 µM; in experiment [4], 2.84 µM; in experiment [5], 12.6 µM; in experiment [6], 16.3 µM. Besides, the TGI in experiment [7] worked out at 0.225 µM.

Consider `CCCCN1CSC(=S)N(Cc2ccccc2)C1`, for which the TGI in experiment [1], in experiment [2], in experiment [3], in experiment [4], in experiment [5] and in experiment [6] was over 100 µM in each case. This molecule also showed a TGI in experiment [7] of over 100 µM.

Regarding `COc1cc2c3c(n(CCNCCCNCCn4c5c(c6cc(OC)c(OC)cc6c4=O)C(=O)c4ccccc4-5)c(=O)c2cc1OC)-c1ccccc1C3=O`, the GI50 is 0.0448 µM in experiment [1]; 0.186 µM in experiment [2]; 1.6 µM in experiment [3]; 1.04 µM in experiment [4]; 0.197 µM in experiment [5]; 0.732 µM in experiment [6]. Also, the GI50 in experiment [7] was 1.14 µM. For the same molecule, the TGI in experiment [2] came to 6.17 µM; in experiment [3], 20.3 µM; in experiment [4] it was 15.2 µM; in experiment [5] it was 30.8 µM; in experiment [6], 7.56 µM; in experiment [7] it was 12.1 µM.

For `C/C(=N\Nc1ccc(Cl)cn1)c1ccccn1`, the GI50 is under 0.0419 µM in experiment [1]; 0.206 µM in experiment [2]; 0.0485 µM in experiment [3]; 0.72 µM in experiment [4]; 0.161 µM in experiment [5]; 0.225 µM in experiment [6]. Moreover, the GI50 in experiment [7] was 0.188 µM. Besides, the TGI is over 59.9 µM in experiment [1]; over 33.9 µM in experiment [2]; over 59.4 µM in experiment [3]; over 100 µM in experiment [4]; over 100 µM in experiment [5]; over 100 µM in experiment [6]. The same molecule showed a TGI in experiment [7] of 24.9 µM.

For `CCN(CC)CCCC(C)Nc1cnc(C(=O)Nc2cccc3ccc(OC)nc23)cn1` (configuration not stated), the GI50 in experiment [1] was 1.78 µM; in experiment [2] it was 1.64 µM; in experiment [3], 1.98 µM; in experiment [4], 1.85 µM; in experiment [5], 4.24 µM; in experiment [6], 1.81 µM. Besides, the GI50 in experiment [7] was 1.25 µM. The TGI in experiment [1] came to 3.51 µM; in experiment [2] it was 3.21 µM; in experiment [3], 4.62 µM; in experiment [4], 3.68 µM; in experiment [5] it was 15.3 µM; in experiment [6], 3.78 µM. In addition, in experiment [7], the TGI turned out to be 2.86 µM.

On to `CC(C)(C)c1ccc(O)c(CN(Cc2cc(C(C)(C)C)ccc2O)c2ccccc2)c1`, for which the TGI in experiment [1] was 35.3 µM; in experiment [2] it was 30.7 µM; in experiment [3] it was 61.8 µM; in experiment [4], 33.3 µM; in experiment [5], 38.3 µM; in experiment [6], 31.8 µM. This molecule had a TGI in experiment [7] of 27.5 µM.
